Columns and labels:
Format in all cases: cell-based, Escherichia coli
[1] = test system: intracellular APEC O78 in Caco-2 cells; experiment: Intracellular survival assay; settings: for minimal effective concentration: Escherichia coli, O78, Caco-2, 6 h treatment, read-out: SMs intracellular APEC clearance concentration; for intracellular APEC clearance concentration as multiple of MIC (superscript): O78, Caco-2; for concentration at which the SM significantly (P < 0.01) reduced intracellular APEC (superscript of t-statistic): O78, Caco-2, 6 h
Experimental: (§1) Intracellular survival assay was conducted as described previously[28],[29] to determine the effect of cidal SMs on APEC survival in phagocytic (HD11, THP-1) and non-phagocytic (Caco-2) cells. Briefly, mid-logarithmic phase grown APEC O78, O1, and O2 were washed and adjusted to 1 × 10^7 CFU/mL in cell culture incomplete media (no FBS and antibiotics). One-hundred microlitres adjusted APEC suspension was added at multiplicity of infection (MOI) 10 to wells of 96-well cell culture plate containing cultured macrophage (HD11, THP-1) and epithelial cells (Caco-2) and incubated for 1 h and 3 h, respectively. […] The cells were then lysed with 100 µL of 0.1% Triton X-100 for 5 mins, serially diluted, and plated on LB agar plate to enumerate viable bacteria. The intracellular bacteria in SMs treated wells were compared with DMSO (1%) treated wells. Two independent experiments in duplicate wells for each concentration of SMs were conducted.

[2] = test system: intracellular APEC O1 in THP-1 cells; experiment: Intracellular survival assay; settings: for minimal effective concentration: Escherichia coli, O1, THP-1, 6 h treatment, read-out: SMs intracellular APEC clearance concentration; for intracellular APEC clearance concentration as multiple of MIC (superscript): O1, THP-1; for concentration at which the SM significantly (P < 0.01) reduced intracellular APEC (superscript of t-statistic): O1, THP-1, 6 h
Experimental: as §1

[3] = test system: intracellular APEC O2 in HD11 cells; experiment: Intracellular survival assay; settings: for minimal effective concentration: Escherichia coli, O2, HD11, 6 h treatment, read-out: SMs intracellular APEC clearance concentration; for intracellular APEC clearance concentration as multiple of MIC (superscript): O2, HD11; for concentration at which the SM significantly (P < 0.01) reduced intracellular APEC (superscript of t-statistic): O2, HD11, 6 h
Experimental: as §1

[4] = test system: intracellular APEC O1 in HD11 cells; experiment: Intracellular survival assay; settings: for minimal effective concentration: Escherichia coli, O1, HD11, 6 h treatment, read-out: SMs intracellular APEC clearance concentration; for concentration at which the SM significantly (P < 0.01) reduced intracellular APEC (superscript of t-statistic): O1, HD11, 6 h
Experimental: as §1

[5] = test system: intracellular APEC O1 in Caco-2 cells; experiment: Intracellular survival assay; settings: for minimal effective concentration: Escherichia coli, O1, Caco-2, 6 h treatment, read-out: SMs intracellular APEC clearance concentration; for concentration at which the SM significantly (P < 0.01) reduced intracellular APEC (superscript of t-statistic): O1, Caco-2, 6 h
Experimental: as §1

[6] = test system: intracellular APEC O78 in HD11 cells; experiment: Intracellular survival assay; settings: for minimal effective concentration: Escherichia coli, O78, HD11, 6 h treatment, read-out: SMs intracellular APEC clearance concentration; for intracellular APEC clearance concentration as multiple of MIC (superscript): O78, HD11; for concentration at which the SM significantly (P < 0.01) reduced intracellular APEC (superscript of t-statistic): O78, HD11, 6 h
Experimental: as §1

[7] = test system: intracellular APEC O78 in THP-1 cells; experiment: Intracellular survival assay; settings: for minimal effective concentration: Escherichia coli, O78, THP-1, 6 h treatment, read-out: SMs intracellular APEC clearance concentration; for intracellular APEC clearance concentration as multiple of MIC (superscript): O78, THP-1; for concentration at which the SM significantly (P < 0.01) reduced intracellular APEC (superscript of t-statistic): O78, THP-1, 6 h
Experimental: as §1

APEC O78 [8] = experiment: Scanning electron microscopy; settings: 2X MBC
Experimental: The SMs treated APEC O78 cultures prepared above were also processed for scanning electron microscopy (SEM) as described previously. […] Briefly, one volume of bacterial culture was mixed with one volume of fixative (3% glutaraldehyde, 1% paraformaldehyde in 0.1 M potassium phosphate buffer, pH 7.2), and incubated at 4 °C overnight. The fixed bacterial cells were then centrifuged for 5 mins at 1,200 × g, washed twice with PBS, and resuspended in 1% osmium tetroxide for 1 h at room temperature in the dark, followed by serial dehydration of the sample in ethanol and platinum splatter-coating. Visualization and imaging of the sample was performed using a Hitachi S-4700 scanning electron microscope.

[9] = test system: STEC O157 and O26 strains; experiment: Activity against STEC strains at 100 µM in M63 media
APEC O78 [10] = experiment: Primary screening, growth inhibition of APEC O78; settings: 100 µM SM; no APEC recovered on LB agar subculture
Experimental: To identify the APEC growth inhibitors, SM library was screened against APEC O78 which is one of the most frequently isolated APEC serotypes from avian colibacillosis cases. One microlitre SMs (final concentration of 100 µM) were added using a slotted pin tool (V and P Scientific, San Diego, CA, USA) to the wells of the 96-well plate containing 100 µL of overnight grown 0.05 OD600 (7 × 10^7 CFU/mL) adjusted APEC culture. Controls (four replicates/plate) containing 1 µL of 100% DMSO (final concentration of 1%), 1 µL chloramphenicol (CHL, #C0378 Sigma-Aldrich) (20 µg/mL), 1 µL kanamycin (KAN, #60615 Sigma-Aldrich) (50 µg/mL), and 100 µL of M63 media were included. To determine the effect of DMSO on APEC growth, antimicrobial activity of DMSO was determined at different concentrations (1% to 32%) in a separate experiment. Plate was then incubated at 37 °C for 12 h in Sunrise - Absorbance microplate reader (Tecan Group Ltd. San Jose, CA) with kinetic OD600 measurement every 30 mins. The quality of screening was assessed by calculating the Z′-score as described previously. The growth inhibition of APEC was calculated by using the formula as previously described[13],[14]. The SMs inhibiting at least 80% of the APEC growth were selected as primary hits. […]

SMILES | minimal effective concentration [1] | intracellular APEC clearance concentration as multiple of MIC (superscript) [1] | concentration at which the SM significantly (P < 0.01) reduced intracellular APEC (superscript of t-statistic) [1] | minimal effective concentration [2] | intracellular APEC clearance concentration as multiple of MIC (superscript) [2] | concentration at which the SM significantly (P < 0.01) reduced intracellular APEC (superscript of t-statistic) [2] | minimal effective concentration [3] | intracellular APEC clearance concentration as multiple of MIC (superscript) [3] | concentration at which the SM significantly (P < 0.01) reduced intracellular APEC (superscript of t-statistic) [3] | minimal effective concentration [4] | concentration at which the SM significantly (P < 0.01) reduced intracellular APEC (superscript of t-statistic) [4] | minimal effective concentration [5] | concentration at which the SM significantly (P < 0.01) reduced intracellular APEC (superscript of t-statistic) [5] | minimal effective concentration [6] | intracellular APEC clearance concentration as multiple of MIC (superscript) [6] | concentration at which the SM significantly (P < 0.01) reduced intracellular APEC (superscript of t-statistic) [6] | minimal effective concentration [7] | intracellular APEC clearance concentration as multiple of MIC (superscript) [7] | concentration at which the SM significantly (P < 0.01) reduced intracellular APEC (superscript of t-statistic) [7] | bactericidal activity against STEC strains [9] | further results
COc1cc(CNCCc2ccc(C)cc2)ccc1OCC(O)CN1CCCC1 (stereo not shown) [SM3] | 100 µM | a (1X MIC) | a (0.5X MIC) | 200 µM | b (2X MIC) | a (0.5X MIC) | 200 µM | b (2X MIC) | a (0.5X MIC) | 200 µM | a (0.5X MIC) | > 200 µM | c (2XMIC) | 100 µM | a (1X MIC) | a (0.5X MIC) | 100 µM | a (1X MIC) | a (0.5X MIC) |  | cell morphology in SEM (APEC O78 [8]): blebbing and pore at single cell pole, respectively
CC1CCCN(CCC(=O)c2ccc(Br)cc2)C1 (stereo not shown) [SM1] | 200 µM | a (1X MIC) | a (0.5X MIC) | 400 µM | b (2X MIC) | a (0.5X MIC) | 200 µM | a (1X MIC) | a (0.5X MIC) | 400 µM | a (0.5X MIC) | > 400 µM | b (1X MIC) | 200 µM | a (1X MIC) | a (0.5X MIC) | 200 µM | a (1X MIC) | a (0.5X MIC) | not cidal | bactericidal effect in primary screening (APEC O78 [10]): bactericidal
CC1CCC(C(C)C)C(OC(=O)Cn2c[n+](CC(=O)OC3CC(C)CCC3C(C)C)c3ccccc32)C1 (stereo not shown) [SM4] | 50 µM | b (2X MIC) | a (0.5X MIC) | > 100 µM |  | b (1X MIC) | 50 µM | b (2X MIC) | a (0.5X MIC) | 50 µM | b (1X MIC) | 100 µM | c (2XMIC) | 50 µM | b (2X MIC) | a (0.5X MIC) | 50 µM | b (2X MIC) | a (0.5X MIC) |  | intracellular APEC clearance concentration as multiple of MIC (superscript) ([5]; O1, Caco-2): c (4X MIC); cell morphology in SEM (APEC O78 [8]): severe wrinkling and multiple blebbing throughout the cells (membrane disruptors)
COc1cc(CNCCc2ccc3ccccc3c2)ccc1OCC(O)CN1CCCC1 (stereo not shown) [SM2] | 100 µM | a (1X MIC) | a (0.5X MIC) | 200 µM | b (2X MIC) | a (0.5X MIC) | 200 µM | b (2X MIC) | a (0.5X MIC) | 200 µM | a (0.5X MIC) | > 200 µM | a (0.5X MIC) | 100 µM | a (1X MIC) | a (0.5X MIC) | 100 µM | a (1X MIC) | a (0.5X MIC) | not cidal | 
COc1ccc(CCN(Cc2cc3c(cc2Cl)OCO3)CC2CCN(C)CC2)cc1 [SM11] | 100 µM | a (1X MIC) | b (1X MIC) | > 200 µM |  | b (1X MIC) | 200 µM | b (2X MIC) | a (0.5X MIC) | 200 µM | b (1X MIC) | > 200 µM | b (1X MIC) | 100 µM | a (1X MIC) | a (0.5X MIC) | 100 µM | a (1X MIC) | a (0.5X MIC) | not cidal | 

— PMC6193035, “Novel small molecules affecting cell membrane as potential therapeutics for avian pathogenic Escherichia coli” (Scientific Reports, 2018)
